Bridge positions count the residues as written; N and C are the ends. Square brackets hold non-standard residues; d marks the D form. Peptide text beside a SMILES is read from it. AEEA = NCCOCCOCC(=O)O
The compounds below were run on endogenous cellular enzyme (assay: Stability test against endogenous cellular enzyme (HUVEC cell lysate)). Settings: 37° C., after 6 hours of the assay.
Format: in vitro ADME, human
Description: In order to test retention of the effect, and usefulness as a drug, each peptide was subjected to a stability test against endogenous cellular enzyme.
Human vascular endothelial cells (HUVECs (Human Umbilical Vein Endothelial Cells, Promocell GmbH.)) were used. Cryopreserved HUVECs were cultured for 2 days in Endothelial Cell Growth Medium (Promocell GmbH.). The cells were detached and collected by a conventional method using trypsin-EDTA, and washed with H2O, followed by addition of Lysis Buffer for Enzyme extraction (5 mL of TBS pH 7.5, 5 mL of Triton X100 (trade name), 40 mL of H2O with cOmplete mini, manufactured by Roche) thereto. The resulting mixture was left to stand on ice for 30 minutes to lyse the cells. The resulting cell lysate was centrifuged at 13,000 rpm at 4° C. for 3 min, and the supernatant was collected. The protein concentration was measured at A280 (Nano drop, Thermofischer scientific), and then adjusted to 2 mg/mL to prepare a protein solution for an assay.
In each of PCR tubes, 50 μL of each of four kinds of AGP solutions (2 mg/mL)+20 μL of the cell lysate (2 mg/mL)+30 μL of H2O were mixed together, and the resulting mixtures were incubated at 37° C. in an incubator for 0, 1, 3, or 6 hours. Thereafter, each mixture was heated in a hot water bath at 90° C. for 5 minutes to inactivate enzyme, and then subjected to LC-MS analysis. The remaining peptide was quantified based on the area value of the peak detected with UV 210 nm in LC.

| Compound | remaining peptide / degradation (in words) |
| --- | --- |
| CC(C)CC1NC(=O)CNC(=O)C(Cc2ccccc2)NC(=O)C(C(C)C)NC(=O)C(C(C)C)NC(=O)C(CO)NC(=O)COCCOCCNC(=O)C(N)CSSCC(C(N)=O)NC(=O)CNC(=O)C(CCCNC(=N)N)NC1=O (stereo not drawn) [cAGP3, Cyclic(Cys-O2Oc-SVVFGLR-G-Cys)-NH2] (H-C[AEEA]SVVFGLRGC-NH2; disulfide 1-11; configuration not given here) | remained almost without degradation |
| CC(C)CC1NC(=O)CNC(=O)C(Cc2ccccc2)NC(=O)C(C(C)C)NC(=O)C(C(C)C)NC(=O)C(CO)NC(=O)COCCOCCNC(=O)C(N)CSSCC(C(N)=O)NC(=O)CNC(=O)C(CCCNC(=N)N)NC1=O (stereo not drawn) [cAGP2, Cyclic(DCys-O2Oc-SVVFGLR-G-DCys)-NH2] (H-C[AEEA]SVVFGLRGC-NH2; disulfide 1-11; configuration not given here) | remained almost without degradation |
| CC(C)CC(NC(=O)CNC(=O)C(Cc1ccccc1)NC(=O)C(NC(=O)C(NC(=O)C(CO)NC(=O)COCCOCCN)C(C)C)C(C)C)C(=O)NC(CCCNC(=N)N)C(N)=O (stereo not drawn) [AGP-O2Oc, O2Oc-SVVFGLR-NH2] (H-[AEEA]SVVFGLR-NH2; configuration not given here) | same level of stability |
